pIC50: −log10 of the molar value. Where two headings read alike, the source gives them in different places.
How the values were obtained:
[1] = biological target: T1, c-Met (cytoplasmic domain) (Homo sapiens, UniProt P08581); test: c-Met Kinase Assay (same methods as for ALK, with modifications); type: biochemical
T1 construct: 10 ng/mL c-Met (cytoplasmic domain, Invitrogen Corporation #PV3143); purchased Invitrogen Corporation PV3143
Method: (§1) Briefly, each 96-well plate was coated with 100 μL/well of 10 μg/mL substrate (phospholipase C-γ) in Tris-buffered saline (TBS). […] The reaction was initiated by adding enzyme (30 ng/ml ALK) and was allowed to proceed at 37° C. for 15 minutes. Detection of the phosphorylated product was performed by adding 100 μl/well of Eu-N1 labeled PT66 antibody (Perkin Elmer # AD0041).
(§2) Data analysis was performed using ActivityBase (IDBS, Guilford, UK). IC50 values were calculated by plotting percent inhibition versus log10 of the concentration of compound and fitting to the nonlinear regression sigmoidal dose-response (variable slope) equation in XLFit (IDBS, Guilford, UK).
Reactions were initiated with 10 ng/mL c-Met (cytoplasmic domain, Invitrogen Corporation #PV3143).

[2] = biological target: T2, baculovirus-expressed ALK (Homo sapiens, UniProt Q9UM73); test: ALK Kinase Assay (ELISA-type, time-resolved fluorescence); type: biochemical
T2 construct: host or cells: baculovirus expression system
T2 sequence (Q9UM73 19-1620): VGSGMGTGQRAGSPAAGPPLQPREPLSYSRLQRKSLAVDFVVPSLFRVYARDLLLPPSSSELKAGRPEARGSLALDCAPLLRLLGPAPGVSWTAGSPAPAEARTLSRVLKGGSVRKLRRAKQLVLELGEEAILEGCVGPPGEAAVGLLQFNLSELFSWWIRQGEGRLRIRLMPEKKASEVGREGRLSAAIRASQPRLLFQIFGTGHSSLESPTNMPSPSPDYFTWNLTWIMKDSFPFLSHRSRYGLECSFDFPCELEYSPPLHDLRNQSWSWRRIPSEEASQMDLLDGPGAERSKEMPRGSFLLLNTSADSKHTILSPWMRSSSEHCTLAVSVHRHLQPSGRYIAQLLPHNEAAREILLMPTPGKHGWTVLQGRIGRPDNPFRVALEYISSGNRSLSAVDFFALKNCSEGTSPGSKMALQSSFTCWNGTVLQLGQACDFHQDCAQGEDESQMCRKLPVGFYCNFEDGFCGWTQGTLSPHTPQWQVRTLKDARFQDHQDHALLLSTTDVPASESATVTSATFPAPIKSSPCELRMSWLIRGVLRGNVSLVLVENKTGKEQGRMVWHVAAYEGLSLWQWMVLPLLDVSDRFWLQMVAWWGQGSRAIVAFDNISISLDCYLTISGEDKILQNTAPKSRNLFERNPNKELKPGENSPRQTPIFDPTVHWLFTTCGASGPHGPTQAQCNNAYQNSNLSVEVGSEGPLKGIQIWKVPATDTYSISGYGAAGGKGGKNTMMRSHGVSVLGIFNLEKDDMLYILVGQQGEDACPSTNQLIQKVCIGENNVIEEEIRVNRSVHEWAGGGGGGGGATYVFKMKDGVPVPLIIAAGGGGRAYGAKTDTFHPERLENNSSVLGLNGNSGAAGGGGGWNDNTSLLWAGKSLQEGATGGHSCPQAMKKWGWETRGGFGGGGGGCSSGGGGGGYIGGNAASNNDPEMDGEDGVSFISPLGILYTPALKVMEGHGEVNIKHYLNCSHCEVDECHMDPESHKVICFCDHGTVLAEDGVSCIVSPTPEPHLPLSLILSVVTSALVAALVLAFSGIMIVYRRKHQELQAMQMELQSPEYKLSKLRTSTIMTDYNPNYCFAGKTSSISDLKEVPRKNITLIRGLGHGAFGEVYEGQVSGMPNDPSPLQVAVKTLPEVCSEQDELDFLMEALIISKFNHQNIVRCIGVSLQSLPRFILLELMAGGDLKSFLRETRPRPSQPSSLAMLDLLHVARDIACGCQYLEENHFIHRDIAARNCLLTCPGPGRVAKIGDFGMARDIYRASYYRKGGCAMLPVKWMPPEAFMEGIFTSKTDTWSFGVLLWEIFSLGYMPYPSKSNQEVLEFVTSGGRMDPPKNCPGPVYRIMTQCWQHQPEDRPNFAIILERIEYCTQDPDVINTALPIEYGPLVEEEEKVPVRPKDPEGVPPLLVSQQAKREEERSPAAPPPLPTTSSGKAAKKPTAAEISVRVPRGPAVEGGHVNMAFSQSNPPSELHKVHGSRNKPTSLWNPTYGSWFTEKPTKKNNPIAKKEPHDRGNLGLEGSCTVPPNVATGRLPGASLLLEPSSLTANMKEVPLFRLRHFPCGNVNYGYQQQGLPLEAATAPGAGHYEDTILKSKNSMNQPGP
Method: as §1, §2

[3] = c-Met kinase inhibition, 1 μM ATP (Km level), read-out: cMet Activity
[4] = ALK kinase inhibition, 1 μM ATP (Km level), read-out: ALK Activity
[5] = 1 μM ATP (Km level), read-out: cMet Activity (c-Met Kinase Inhibition, IC50)
[6] = 1 μM ATP (Km level), read-out: ALK Activity (ALK Kinase Inhibition, IC50)
[7] = 1 μM ATP (Km level), 10 ng/mL c-Met, read-out: cMet Activity (c-Met kinase inhibition, IC50 class)
[8] = 1 μM ATP (Km level), 30 ng/ml ALK, 37° C., 15 minutes, read-out: ALK Activity (ALK kinase inhibition, IC50 class)
[9] = c-Met kinase inhibition, 1 μM ATP, read-out: cMet Activity
[10] = ALK kinase inhibition, 1 μM ATP, read-out: ALK Activity

T1 sequence (P08581 956-1390 limits assumed): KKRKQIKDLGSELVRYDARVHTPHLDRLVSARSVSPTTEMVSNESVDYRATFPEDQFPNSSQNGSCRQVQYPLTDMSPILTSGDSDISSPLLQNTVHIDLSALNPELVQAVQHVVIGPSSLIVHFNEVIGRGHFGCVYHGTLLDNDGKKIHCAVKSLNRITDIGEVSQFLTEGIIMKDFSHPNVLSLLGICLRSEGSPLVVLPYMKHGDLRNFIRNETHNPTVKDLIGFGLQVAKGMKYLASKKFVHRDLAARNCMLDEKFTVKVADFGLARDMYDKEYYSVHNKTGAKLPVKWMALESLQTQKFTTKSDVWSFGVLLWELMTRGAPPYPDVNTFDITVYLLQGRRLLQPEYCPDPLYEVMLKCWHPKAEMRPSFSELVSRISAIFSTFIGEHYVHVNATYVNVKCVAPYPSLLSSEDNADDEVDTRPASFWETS

With CCN1CC2CCC(C1)c1cc(Nc3ncc(Cl)c(Nc4ccccc4S(=O)(=O)NC)n3)ccc12 (centres unmarked) [Example 272, 2-[5-Chloro-2-(10-ethyl-10-aza-tricyclo[6.3.2.0*2,7*]trideca-2,4,6-trien-4-ylamino)-pyrimidin-4-ylamino]-N-methyl-benzenesulfonamide] as the compound, how does the pIC50 [1, 3] read?
The pIC50 was 6.00 to 7.00.

And the pIC50 [2, 4]?
The pIC50 was over 7.00.

CCN1CCc2cc(Nc3ncc(Cl)c(N[C@H]4[C@@H](C(N)=O)[C@@H]5C=C[C@H]4C5)n3)c(OC)cc2CC1 [Example 773, (1S,2S,3R,4R)-3-[5-Chloro-2-(3-ethyl-8-methoxy-2,3,4,5-tetrahydro-1H-benzo[d]azepin-7-ylamino)-pyrimidin-4-ylamino]-bicyclo[2.2.1]hept-5-ene-2-carboxylic acid amide] was tested. Which pIC50 [1, 5] did it give?
Its pIC50 is under 5.00.

And the pIC50 [2, 6]?
The pIC50 was over 7.00.

What does the source list for CNC(=O)c1ccccc1Nc1nc(Nc2ccc3c(c2)CNC(=O)CCN3C(C)=O)ncc1Cl [Example 1305, 2-[2-(1-Acetyl-4-oxo-1,2,3,4,5,6-hexahydro-benzo[b][1,5]diazocin-8-ylamino)-5-chloro-pyrimidin-4-ylamino]-N-methyl-benzamide]?
pIC50 [1, 7]: > 7.00; pIC50 [2, 8]: > 7.00

How did the pIC50 [1, 5] turn out when COCC(COC)N1CCc2cc(Nc3ncc(Cl)c(Nc4ccccc4S(=O)(=O)N4CCCC4)n3)c(OC)cc2CC1 [Example 844, 5-Chloro-N*2*-[8-methoxy-3-(2-methoxy-1-methoxymethyl-ethyl)-2,3,4,5-tetrahydro-1H-benzo[d]azepin-7-yl]-N*4*-[2-(pyrrolidine-1-sulfonyl)-phenyl]-pyrimidine-2,4-diamine] was run?
Its pIC50 is 5.00 to 6.00.

And the pIC50 [2, 6]?
Its pIC50 is over 7.00.

Which results are given for CCC(C)N1C2CCC1c1cc(Nc3ncc(Cl)c(N[C@@H]4CCCC[C@H]4NS(C)(=O)=O)n3)ccc1C2 (mixture of isomers) [Example 84, N-{(1R,2R)-2-[2-(12-sec-Butyl-12-aza-tricyclo[7.2.1.0*2,7*]dodeca-2(7),3,5-trien-4-ylamino)-5-chloro-pyrimidin-4-ylamino]-cyclohexyl}-methanesulfonamide]?
pIC50 [1, 3]: 6.00 to 7.00; pIC50 [2, 4]: > 7.00

With CNC(=O)c1cc(-c2cnn(C)c2)cc(F)c1Nc1nc(Nc2ccc3c(c2)CCN(CCOC)CC3)ncc1Cl [Example 1423, 2-{5-Chloro-2-[3-(2-methoxy-ethyl)-2,3,4,5-tetrahydro-1H-benzo[d]azepin-7-ylamino]-pyrimidin-4-ylamino}-3-fluoro-N-methyl-5-(1-methyl-1H-pyrazol-4-yl)-benzamide] as the compound, how does the pIC50 [1, 7] read?
The pIC50 was over 7.00.

What about the pIC50 [2, 8] of the same compound?
The pIC50 was over 7.00.

Which results are given for COc1cc(N2CCOCC2)ccc1Nc1nc(Nc2cccc3c2OCCCC3)ncc1Cl [Example 862, 5-Chloro-N*4*-(2-methoxy-4-morpholin-4-yl-phenyl)-N*2*-(2,3,4,5-tetrahydrobenzo[b]oxepin-9-yl)pyrimidine-2,4-diamine]?
pIC50 [1, 5]: < 5.00; pIC50 [2, 6]: > 7.00

With CNC(=O)c1ccccc1Nc1nc(Nc2cc3c(cc2OC)CC(=O)NCC3)ncc1Cl [Example 264, 2-[5-Chloro-2-(8-methoxy-2-oxo-2,3,4,5-tetrahydro-1H-benzo[d]azepin-7-ylamino)-pyrimidin-4-ylamino]-N-methyl-benzamide] as the compound, how does the pIC50 [1, 3] read?
Its pIC50 is 5.00 to 6.00.

And the pIC50 [2, 4]?
The pIC50 was over 7.00.

What does the source list for COCCN1C(=O)CCC(C)(C)c2ccc(Nc3ncc(Cl)c(N[C@H]4[C@@H](C(N)=O)[C@@H]5C=C[C@H]4C5)n3)cc21 [Example 1583, (1S,2S,3R,4R)-3-{5-Chloro-2-[1-(2-methoxy-ethyl)-5,5-dimethyl-2-oxo-2,3,4,5-tetrahydro-1H-benzo[b]azepin-8-ylamino]-pyrimidin-4-ylamino}-bicyclo[2.2.1]hept-5-ene-2-carboxylic acid amide]?
pIC50 [1, 9]: 6.00 to 7.00; pIC50 [2, 10]: > 7.00

COc1cc(N2CCOCC2)ccc1Nc1nc(Nc2ccc(OC)c3c2N(C)C(=O)CCC3)ncc1Cl [Example 124, 9-[5-Chloro-4-(2-methoxy-4-morpholin-4-yl-phenylamino)-pyrimidin-2-ylamino]-6-methoxy-1-methyl-1,3,4,5-tetrahydro-benzo[b]azepin-2-one] was tested. Which pIC50 [1, 3] did it give?
Its pIC50 is under 5.00.

And the pIC50 [2, 4]?
Its pIC50 is over 7.00.

With CCN1CCN(C(C)=O)c2cc(Nc3ncc(Cl)c(Nc4c(F)cccc4C(=O)NC)n3)ccc2C1 [Example 1879, 2-[2-(1-Acetyl-4-ethyl-2,3,4,5-tetrahydro-1H-benzo[e][1,4]diazepin-8-ylamino)-5-chloro-pyrimidin-4-ylamino]-3-fluoro-N-methyl-benzamide] as the compound, how does the pIC50 [1, 3] read?
Its pIC50 is over 7.00.

And the pIC50 [2, 4]?
Its pIC50 is 6.00 to 7.00.

CC(C)N1CCCC(C)(C)c2ccc(Nc3ncc(Cl)c(N[C@H]4[C@@H](C(N)=O)[C@@H]5C=C[C@H]4C5)n3)cc21 [Example 1628, (1S,2S,3R,4R)-3-[5-Chloro-2-(1-isopropyl-5,5-dimethyl-2,3,4,5-tetrahydro-1H-benzo[b]azepin-8-ylamino)-pyrimidin-4-ylamino]-bicyclo[2.2.1]hept-5-ene-2-carboxylic acid amide] was tested. Which pIC50 [1, 9] did it give?
The pIC50 was under 5.00.

What about the pIC50 [2, 10] of the same compound?
Its pIC50 is over 7.00.

What does the source list for CNC(=O)c1ccccc1Nc1nc(Nc2ccc3c(c2)CCN(C)CC3)ncc1Cl [Example 46, 2-[5-Chloro-2-(3-methyl-2,3,4,5-tetrahydro-1H-benzo[d]azepin-7-ylamino)-pyrimidin-4-ylamino]-N-methyl-benzamide]?
pIC50 [1, 3]: > 7.00; pIC50 [2, 4]: > 7.00

Which results are given for CNC(=O)CN1CCc2cc(Nc3ncc(Cl)c(Nc4ccc(N5CCN(C)CC5)c(C)c4)n3)c(OC)cc2CC1 [Example 798, 2-(7-{5-Chloro-4-[3-methyl-4-(4-methyl-piperazin-1-yl)-phenylamino]-pyrimidin-2-ylamino}-8-methoxy-1,2,4,5-tetrahydro-benzo[d]azepin-3-yl)-N-methyl-acetamide]?
pIC50 [1, 5]: < 5.00; pIC50 [2, 6]: > 7.00

What does the source list for COCCN1CCc2ccc(Nc3ncc(Cl)c(Nc4cc(Cl)ccc4OC)n3)cc2CC1 [Example 146, 5-Chloro-N*4*-(5-chloro-2-methoxy-phenyl)-N*2*-[3-(2-methoxy-ethyl)-2,3,4,5-tetrahydro-1H-benzo[d]azepin-7-yl]-pyrimidine-2,4-diamine]?
pIC50 [1, 3]: 6.00 to 7.00; pIC50 [2, 4]: > 7.00

What does the source list for CNC(=O)c1cccc(F)c1Nc1nc(Nc2ccc3c(c2)NCCCC3(C)C)ncc1Cl [Example 1611, 2-[5-Chloro-2-(5,5-dimethyl-2,3,4,5-tetrahydro-1H-benzo[b]azepin-8-ylamino)-pyrimidin-4-ylamino]-3-fluoro-N-methyl-benzamide]?
pIC50 [1, 9]: > 7.00; pIC50 [2, 10]: 6.00 to 7.00

With COc1cc2c(cc1Nc1ncc(Cl)c(Nc3ccc(N4CCOCC4)cc3OC)n1)CCN(CC(F)F)CC2 [Example 761, 5-Chloro-N*2*-[3-(2,2-difluoro-ethyl)-8-methoxy-2,3,4,5-tetrahydro-1H-benzo[d]azepin-7-yl]-N*4*-(2-methoxy-4-morpholin-4-yl-phenyl)-pyrimidine-2,4-diamine] as the compound, how does the pIC50 [1, 5] read?
The pIC50 was under 5.00.

CNC(=O)CN1CCc2cc(Nc3ncc(Cl)c(Nc4ccc(N5CCOCC5)cc4OC)n3)c(OC)cc2CC1 [Example 1113, 2-{7-[5-Chloro-4-(2-methoxy-4-morpholin-4-yl-phenylamino)-pyrimidin-2-ylamino]-8-methoxy-1,2,4,5-tetrahydro-benzo[d]azepin-3-yl}-N-methyl-acetamide] was tested. Which pIC50 [1, 7] did it give?
The pIC50 was under 5.00.

With COc1cc2c(cc1Nc1ncc(Cl)c(Nc3ccc(C(N)=O)cc3OC)n1)CCN(CC(=O)N(C)C)CC2 [Example 1146, 4-[5-Chloro-2-(3-dimethylcarbamoylmethyl-8-methoxy-2,3,4,5-tetrahydro-1H-benzo[d]azepin-7-ylamino)-pyrimidin-4-ylamino]-3-methoxy-benzamide] as the compound, how does the pIC50 [1, 7] read?
Its pIC50 is under 5.00.

— patent US8148391B2 (Cephalon, Inc., priority 2006, dated 2012)
